# Experimental data: patent US8921108B2, “Differentiated human liver cell cultures and their use in bioartificial liver systems” (Academisch Ziekenhuis Bij de Universiteit van Amsterdam, priority 2009, dated 2014)
# Marks after values point to notes of the source that are not given here.
# Legend:
# Type in all cases: cell-based, human
# HepaRG cells [1] = experiment: RT-PCR mRNA levels of hepatic genes in HepaRG cells from AMC-BAL bioreactor
# HepaRG cells [2] = experiment: RT-PCR mRNA levels of hepatic genes in HepaRG monolayer cultures; settings: CG treatment
# Experimental: The HepaRG cells cultured in the 6-well plates are lysed and the RNA is isolated using the RNeasy kit (Qiagen). Next, real-time reverse transcriptase-polymerase chain reactions (RT-PCR) are performed to quantify mRNA levels of hepatic genes as well as 18S ribosomal RNA levels by RT-PCR.
# First-strand cDNA is generated using a combination of 40 pmol of gene-specific RT-primers (see Table 1) and 134 units of Superscript III (Invitrogen) and 1 μg RNA in a total volume of 25 μl at 50° C. for one hour followed by a 15 min incubation at 70° C. The resulting gene-specific RT reaction mixtures are column purified using Qiaquick PCR Purification Kit (Qiagen).
# Real-time PCR is performed using 1 μl of cDNA and LightCycler FastStart DNA Master SYBR® Green 1 reagent (Roche). PCR primers are depicted in the Table 3. The thermal cycling profile of the touchdown PCR is as follows: 94° C. for 10 min, followed by 40 cycles of 94° C. for 1 s, primer annealing at 68° C. for 7 s with a 0.5° C./cycle decrease until 63° C., and extension for 40 s at 72° C. PCR specificity is verified by melting curve analysis and agarose gel electrophoresis. The mRNA quantification is carried out by using the LinRegPCR programme (Ramakers et al.^17). For each sample the mRNA starting level is normalised for the 18S rRNA starting level. To correct for variations between RT-PCR runs, the mRNA starting levels of liver specific genes of NKNT-3 cells are additionally standardized for average mRNA starting levels of two liver samples that are simultaneously subjected to RT-PCR.
# HepaRG cells [3] = experiment: 15N urea enrichment (conversion of ammonia into urea) in HepaRG monolayer cultures; settings: for 15N urea enrichment: 1 mM CG in preincubation and in testmedium (++)
# Experimental: For testing, the cells are seeded in 6-well and 24-well culture plates (Corning) in HepaRG media with different FBS batches or other differences in medium composition. After a 2 weeks proliferation phase, 2% of DMSO will be added to half of the cultures. After another 2 weeks of culturing, the confluence and morphology of the cultures will be assessed microscopically. Furthermore the +DMSO and −DMSO cell cultures in the 24-well plates will be tested for biochemical activity, i.e. urea production, ammonia elimination and protein content. The cultured cells are washed twice using phosphate buffered saline (PBS, NBPI International) and then incubated with test medium consisting of HepaRG culture medium supplemented with 1.5 mM ^15NH4Cl (Sigma), 2.75 mM D-galactose (Sigma), 2 mM ornithine hydrochloride (Sigma) and 2 mM L-lactate (Sigma). Medium samples are taken after 1 hr from the culture wells, as a reference, and after 24 hours. At the end of the test period the cells are washed three times using PBS and stored at −20° C. for protein determination. From the changes in concentration at t=1 hr and 24 hr of urea and ammonia an activity per hour and per mg protein/well is calculated. Quality of the cell-loaded bioreactors, measured by hepatocyte function at the start of the treatment, will be compared with values of primary hepatocytes that have been tested extensively in vitro in the past.
# ^15N Urea: Single and Double labelled urea is measured in the test medium samples using mass-spectrometry.
# (§1) The HepaRG cells are cultured as indicated above in 24 well in presence or absence of 1 mM CG during the last 5 days. Next the cells are tested as indicated above in presence or absence of CG during 24 hours. To determine the conversion of ammonia into urea, the ^15N urea enrichment (single and double labeled) is measured in the test samples using mass-spectrometry. Similarly, HepG2 and cBAL111 cells were tested for their response to CG.
# HepG2 cells = experiment: Urea production of HepG2 cells in monolayer, response to CG
# Experimental: Urea: Urea concentrations of test medium samples are determined using the blood urea nitrogen test of Sigma Chemical Co according to the instructions of the manufacturer.
# as §1
# HepaRG cells [4] = experiment: AMC-BAL bioreactor functionality test of HepaRG cells
# Experimental: One liter of HepaRG medium containing 75 ml of viable HepaRG cells is injected under sterile conditions into an AMC-BAL bioreactor (cf. Flendrig et al.^15) through three loading ports. […] To ensure optimal cell attachment and an even cell distribution, bioreactors are rotated 340° (back and forth) along the longitudinal axis at 1 revolution/min. After this attachment period, dead and unattached cells are removed by flushing 500 mL of fresh culture medium through the bioreactor at 150 mL/min. From then on bioreactors are perfused with 1.5 L recirculating culture medium at 150 mL/min. The medium is refreshed every three days. The bioreactors are cultured in HepaRG medium for 14 days. […] At least one week prior to clinical application, 1 mM CG (Sigma) is added to the media to enhance the urea cycle. The bioreactors are tested every culture week and prior to clinical application for sterility and function. Laboratory model AMC-BAL bioreactors, e.g. of a different scale, are produced in essentially the same way as described above. These laboratory model bioreactors are used e.g. for clinical testing in animal models, such as rats with acute liver failure.
# Thirdly, the culture medium is replaced by 1500 ml test medium. […] At first 700 ml test medium is flushed through the bioreactor followed by recirculation of 800 ml test medium during 24 hours. […] From the changes in concentration an activity per hour and per billion cells seeded is calculated.
# [5] = Bioreactor −DMSO +CG versus Monolayer + DMSO − CG
# [6] = Bioreactor −DMSO +CG versus Monolayer − DMSO − CG
# [7] = HepaRG in AMC-BAL bioreactor, 13 days, −DMSO, 1 mM CG
structure (smiles),measurement,setting,value
"NC(=O)N[C@@H](CCC(=O)O)C(=O)O [CG, carbamoyl glutamate]",% improvement by bioreactor: Alb mRNA level,HepaRG cells [1]; [5],313* %
same,% improvement by bioreactor: ArgI mRNA level,HepaRG cells [1]; [5],460* %
same,% improvement by bioreactor: ArgII mRNA level,HepaRG cells [1]; [5],42%
same,% improvement by bioreactor: CPS mRNA level,HepaRG cells [1]; [5],4000* %
same,% improvement by bioreactor: CYP2B6 mRNA level,HepaRG cells [1]; [5],49%
same,% improvement by bioreactor: CYP3A4 mRNA level,HepaRG cells [1]; [5],148%
same,% improvement by bioreactor: GS mRNA level,HepaRG cells [1]; [5],714%
same,% improvement by bioreactor: HNF4 mRNA level,HepaRG cells [1]; [5],198* %
same,% improvement by bioreactor: PXR mRNA level,HepaRG cells [1]; [5],633%
same,% improvement by bioreactor: Alb mRNA level,HepaRG cells [1]; [6],109%
same,% improvement by bioreactor: ArgI mRNA level,HepaRG cells [1]; [6],155%
same,% improvement by bioreactor: ArgII mRNA level,HepaRG cells [1]; [6],54%
same,% improvement by bioreactor: CPS mRNA level,HepaRG cells [1]; [6],145%
same,% improvement by bioreactor: CYP2B6 mRNA level,HepaRG cells [1]; [6],863* %
same,% improvement by bioreactor: CYP3A4 mRNA level,HepaRG cells [1]; [6],1063* %
same,% improvement by bioreactor: GS mRNA level,HepaRG cells [1]; [6],300* %
same,% improvement by bioreactor: HNF4 mRNA level,HepaRG cells [1]; [6],187* %
same,% improvement by bioreactor: PXR mRNA level,HepaRG cells [1]; [6],437%
same,Alb mRNA level,HepaRG cells [1]; [7],72.1 ± 26.0 % of in vivo
same,ArgI mRNA level,HepaRG cells [1]; [7],22.9 ± 10.4 % of in vivo
same,ArgII mRNA level,HepaRG cells [1]; [7],305 ± 143 % of in vivo
same,CPS mRNA level,HepaRG cells [1]; [7],44.1 ± 32.2 % of in vivo
same,CYP2B6 mRNA level,HepaRG cells [1]; [7],30.2 ± 15.9 % of in vivo
same,CYP3A4 mRNA level,HepaRG cells [1]; [7],102 ± 49.4 % of in vivo
same,GS mRNA level,HepaRG cells [1]; [7],643 ± 395 % of in vivo
same,HNF4 mRNA level,HepaRG cells [1]; [7],386 ± 216 % of in vivo
same,PXR mRNA level,HepaRG cells [1]; [7],82.5 ± 68.9 % of in vivo
same,effect on other hepatic functions and the gene expression profiles,HepaRG cells [2],No effect
same,15N urea enrichment,HepaRG cells [3]; HepaRG + DMSO,7.8 ± 2.4 % of total urea produced
same,15N urea enrichment,HepaRG cells [3]; HepaRG − DMSO,24.4 ± 4.1 % of total urea produced
same,increase of % of urea of the total urea produced from ammonia,"HepaRG cells [3]; HepaRG −DMSO cells, CG treatment",four-fold
same,Urea production,HepG2 cells; 1 mM CG in preincubation and in testmedium (++),2.4 ± 1.6 nmol/h/mg protein
same,Urea production,HepG2 cells; 1 mM CG only during preincubation (+−),2.5 ± 1.4 nmol/h/mg protein
same,Urea production,HepG2 cells; 1 mM CG only during test (−+),1.8 ± 1.1 nmol/h/mg protein
same,% improvement by bioreactor: 15N urea enrichment,HepaRG cells [4]; [5],157* %
same,% improvement by bioreactor: Ammonia elimination,HepaRG cells [4]; [5],134%
same,% improvement by bioreactor: ApoA1 synthesis,HepaRG cells [4]; [5],113%
same,% improvement by bioreactor: Lactate consumption,HepaRG cells [4]; [5],conversion*
same,% improvement by bioreactor: Urea production,HepaRG cells [4]; [5],187* %
same,% improvement by bioreactor: 15N urea enrichment,HepaRG cells [4]; [6],418* %
same,% improvement by bioreactor: Ammonia elimination,HepaRG cells [4]; [6],199* %
same,% improvement by bioreactor: ApoA1 synthesis,HepaRG cells [4]; [6],154%
same,% improvement by bioreactor: Lactate consumption,HepaRG cells [4]; [6],conversion*
same,% improvement by bioreactor: Urea production,HepaRG cells [4]; [6],262* %
same,15N urea enrichment,HepaRG cells [4]; [7],25.1 ± 3.7 % of total urea
same,Ammonia elimination,HepaRG cells [4]; [7],143 ± 105 nmol/h/mg protein
same,ApoA1 synthesis,HepaRG cells [4]; [7],1.2 ± 0.9 ug/h/mg protein
same,Lactate consumption,HepaRG cells [4]; [7],42.1 ± 14.7 nmol/h/mg protein
same,Urea production,HepaRG cells [4]; [7],13.1 ± 1.2 nmol/h/mg protein
